Laboratory results as given in patent US11987557B2, “Phenalene-1-one-containing photosensitizer composition, phenalene-1-one compound and the use thereof” ([…], priority 2017, dated 2024).
Where “and” joins values, the source holds several entries; their conditions need not be identical. Equal entries are not always repeated.

How the values were obtained:
[1] = test system: Staphylococcus aureus ATCC 25923; experiment: Photodynamic inactivation of S. aureus on coated sample supports, LED 405 nm (Example 3); assay type: cell-based
Procedure: The photosensitizer was dissolved in the respective paint system and applied to various square sample supports (width: 4 cm, length: 4 cm, thickness: 3 mm) formed from PVC or PMMA and then dried. After drying the coating, a specific quantity of bacteria from the species Staphylococcus aureus ATCC 25923 was applied to the surface.
In this regard, firstly, an overnight (ON) culture of S. aureus in 5 mL of Mueller Hinton broth (Carl Roth GmbH+Co. KG, Karlsruhe, DE) was inoculated with a single colony from an agar plate and incubated at 37° C. and 180 rpm on a shaker for 18-20 hours.
On the day of the test, in each case 1 mL of ON culture was centrifuged (Hettich Universal 320 R centrifuge (Andreas Hettich GmbH & Co. KG, Tuttlingen, DE); swing-out rotor 1494; 10 Min, 3000 rpm, RT). The supernatant was discarded and the pellet was re-suspended in 1 mL of Milli-Q water, which is commercially available from Merck (KGaA, Darmstadt, DE) (designation “Milli-Q Integral Ultra-pure Water (Type 1)”).
After determining the optical density at 600 nm (“Specord 50 plus”, spectrometer, Analytik Jena), the re-suspended bacteria were diluted with Milli-Q-water to a cell count of 10^5 bacteria/mL. From the dilution, in each case 100 μL was dripped onto the sample support using a pipette (droplet size approximately 1 cm^2).
The sample support was then dried in air under a clean bench in the dark for approximately 2 hours, until water could no longer be seen on the surface.
The respective sample supports were irradiated with monochrome light at a wavelength of 405 nm with the aid of a LED module (test area 5×5 cm homogeneously illuminated; high power LEDs) or with room lighting (Osram Lumilux Cool White, colour temperature 4000 K) at the intensities and for the irradiation periods given below. Directly after irradiation, the bacteria were wiped from the surface of the respective sample support with a sterile cloth and re-suspended in 1 mL of Mueller-Hinton broth.
Next, the sample was serially diluted (1:10 dilution stages: 180+20 μL; to dilution stage 10^5).
For each dilution stage (100 to 10^−5), 3× respectively 20 μL of broth was dripped onto a Mueller-Hinton agar plate (Carl Roth GmbH+Co. KG) using a pipette, and spread. The agar plates were then incubated at 37° C. ON.
On the following day, the colonies from all of the dilution stages which could be counted of an experiment were counted and the CFU/mL was calculated.
Next, from the value for the CFU/mL, the log10 eradication rate was calculated. The reference point in each experiment was the reference control (=100% count of bacteria employed).
A test was composed of the following: • coated sample support: without photosensitizer, not irradiated (“reference control”) • coated sample support: with photosensitizer, not irradiated (“dark control”) • coated sample support: without photosensitizer and irradiated (“light control”) • coated sample support: with photosensitizer and irradiated (“sample”)
• Coated material: PMMA, 3 mm thickness, 4×4 cm • Drying time approximately 1 hour • Drying temperature 15-30° C. • Application with a spray gun • Concentration of photosensitizer used: […] (61.55 mg/L) Irradiation Conditions:
• Coated material: PVC, 3 mm thickness, 4×4 cm • Drying time approximately 2 hours • Drying temperature 15-30° C. • Relative humidity for the drying time 30-70% • Application with a spray gun • Concentration of photosensitizer used: […] (61.55 mg/L) Irradiation Conditions: […]

S. aureus [2] = experiment: Phototoxic effect of coated surface in office lighting (Example 4); assay type: cell-based, Staphylococcus aureus; details: 2-C paint from Example 2.1, storage 24 h, illumination period 12 h
Procedure: In a subsequent test, the 2-C paint system was irradiated with room lighting. In this regard, the photoactive surfaces produced in Example 2.1 with the photosensitizers SAPN-19c and SAPN-19 were additionally stored exposed in areas with normal office lighting (standard fluorescent lights, Osram Cool White, 840) and the phototoxic action on S. aureus with the same pathogen counts as in Example 3 was analysed after specific periods. In this regard, the photoactive layers were distanced from the light source by approximately 40 cm. It was shown that for the photosensitizer SAPN-19c, after storage for 24 h under standard office lighting conditions with an illumination period of 12 h, that ail pathogens on the surface had been completely eradicated (approximately 5.5 log10 units, corresponding to >99.999% reduction).

S. aureus [3] = experiment: Long-term test of photoactive stability after pre-irradiation (Example 5); assay type: cell-based, Staphylococcus aureus
Procedure: In order to test the stability of the lacks produced, a long term test was carried out.
The test surfaces were pre-irradiated for different time periods (5, 25, 50, 75 h) at an output of 5 mW cm^−2 in order to establish whether the respective photosensitizer in PUR was affected in a manner such that the phototoxic activity of the surface was reduced:
Following the pre-irradiation, the surfaces as described above were contaminated with S. aureus then irradiated for 2 h (corresponds to 5 mW cm^−2) and the phototoxic efficiency was measured.

Structure (SMILES): CC(C)(O)c1cc[n+](CC2=Cc3cccc4cccc(c34)C2=O)cc1 [SAPN-19c]
- mean eradication of S. aureus ([1]; 1-C polyurethane paint, water-based, on PVC, LED 405 nm, 10 mW/cm^2, 10 minutes (6 J/cm^2), three independent tests): 3.0 log10 units and 3 log10 units
- eradication of S. aureus ([1]; 2-C polyurethane paint on PMMA, LED 405 nm, 0.7 mW/cm^2, after 20 minutes, two independent tests): 1.9 log10 units
- log10 reduction of S. aureus ([1]; 2-C polyurethane paint on PMMA, photosensitizer 200 μm (61.55 mg/L), LED 405 nm, 10 mW/cm^2, 2 minutes (1.2 J/cm^2), mean of 3 independent experiments): 1.8 log10
- extermination of S. aureus ([1]; 2-C polyurethane paint on PMMA, photosensitizer 200 μm (61.55 mg/L), LED 405 nm, 20 mW/cm^2, 2 minutes (2.4 J/cm^2)): 2.7 log10 units
- reduction of the bacteria involved ([1]; coating at 6 J/cm^2, equivalent of 3 log10 units): 99.9%
- eradication of pathogens on the surface (S. aureus [2]; standard office lighting (Osram Cool White, 840), approx. 40 cm): approximately 5.5 log10 units
- reduction of pathogens on the surface (S. aureus [2]; standard office lighting): > 99.999%

Structure (SMILES): OCCOCCOc1ccc(-c2c3nc(c(-c4ccccc4)c4ccc([nH]4)c(-c4ccccc4)c4nc(c(-c5ccccc5)c5ccc2[nH]5)C=C4)C=C3)cc1 [TPP sensitizer WBII/2]
- phototoxic efficiency after pre-irradiation (S. aureus [3]; PUR surface pre-irradiated 5, 25, 50, 75 h at 5 mW cm^−2, then contaminated with S. aureus and irradiated 2 h): noticeable reduction in the phototoxic efficiency
- state of the test surfaces after one month (S. aureus [3]; porphyrin-doped surfaces, after one month): discoloured significantly and they lost phototoxic activity
